In ChEMBL document CHEMBL1201862, “PubChem BioAssay data set” (2004):
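All cell lines were grown in 96-well plates and treated with compound for 48 hours. Abbreviation: GI50, concentration required for 50% inhibition of growth.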 Calls of active or inactive are those of the source. Rule as the data show it: active = GI50 up to about 1.1 µM and inactive = higher.

Columns and labels:
Experiment in all cases: inhibition of tumour cell growth, NCI panel, 48 h
[1] = tested on: CAKI-1
[2] = tested on: EKVX
[3] = tested on: HCT-15
[4] = tested on: HOP-62
[5] = tested on: MDA-MB-231
[6] = tested on: MDA-MB-435
[7] = tested on: MDA-N
[8] = tested on: NCI-H226
[9] = tested on: NCI-H23
[10] = tested on: NCI/ADR-RES
[11] = tested on: OVCAR-3
[12] = tested on: PC-3
[13] = tested on: RXF 393
[14] = tested on: SF-295
[15] = tested on: SK-MEL-28
[16] = tested on: SK-OV-3
[17] = tested on: SN12C
[18] = tested on: TK-10
[19] = tested on: UACC-257
[20] = tested on: UACC-62

| SMILES | GI50 [1] | GI50 [2] | GI50 [3] [µM] | GI50 [4] | GI50 [5] | GI50 [6] | GI50 [7] | GI50 [8] | GI50 [9] | GI50 [10] | GI50 [11] | GI50 [12] | GI50 [13] | GI50 [14] | GI50 [15] | GI50 [16] | GI50 [17] | GI50 [18] | GI50 [19] | GI50 [20] |
| --- | --- | --- | --- | --- | --- | --- | --- | --- | --- | --- | --- | --- | --- | --- | --- | --- | --- | --- | --- | --- |
| O=C(CCSC(CC(=O)c1ccc(Cl)cc1)c1ccc(Cl)cc1)Nc1ccc(Cl)cc1 (stereo unspecified) | 18.4 µM (inactive) | 12.7 µM (inactive) | 10.8 | 13.3 µM (inactive) | 15.2 µM (inactive) | 12.3 µM (inactive) | 9.68 µM (inactive) | 20.3 µM (inactive) | 16.3 µM (inactive) | 15.5 µM (inactive) | 14.1 µM (inactive) | 14.1 µM (inactive) | 14.9 µM (inactive) | 9.44 µM (inactive) | 15.4 µM (inactive) | 20.7 µM (inactive) | 12.4 µM (inactive) | 14.6 µM (inactive) | 15.7 µM (inactive) | 10.2 µM (inactive) |
| Oc1ccc(-c2cc(-c3cc(-c4ccc(O)cc4)no3)on2)cc1 | 56.6 µM (inactive) | 26.5 µM (inactive) | 1.98 | > 50.9 µM (inactive) | > 24.4 µM (inactive) | > 100 µM (inactive) | 36.9 µM (inactive) | > 75.9 µM (inactive) | > 100 µM (inactive) | > 100 µM (inactive) | > 100 µM (inactive) | 13.2 µM (inactive) | > 100 µM (inactive) | 35.1 µM (inactive) | > 100 µM (inactive) | > 100 µM (inactive) | – | > 100 µM (inactive) | 7.64 µM (inactive) | 1.16 µM (inactive) |
| Cc1ccc2c(c1)C(C1Cc3cccc(C)c3C1=O)OC2=O (stereo unspecified) | > 100 µM (inactive) | 67.6 µM (inactive) | > 100 | > 100 µM (inactive) | > 100 µM (inactive) | 47.5 µM (inactive) | > 100 µM (inactive) | 72.9 µM (inactive) | > 100 µM (inactive) | > 100 µM (inactive) | > 100 µM (inactive) | > 100 µM (inactive) | 22.4 µM (inactive) | > 100 µM (inactive) | > 100 µM (inactive) | > 100 µM (inactive) | > 100 µM (inactive) | > 100 µM (inactive) | > 100 µM (inactive) | 94.6 µM (inactive) |
| O=C(O)/C(O)=C\C(=O)c1ccc(Br)cc1 | > 100 µM (inactive) | 2.98 µM (inactive) | > 100 | > 100 µM (inactive) | > 100 µM (inactive) | > 100 µM (inactive) | > 100 µM (inactive) | > 100 µM (inactive) | > 100 µM (inactive) | > 100 µM (inactive) | > 100 µM (inactive) | > 100 µM (inactive) | > 100 µM (inactive) | > 100 µM (inactive) | > 100 µM (inactive) | > 100 µM (inactive) | > 100 µM (inactive) | > 100 µM (inactive) | > 100 µM (inactive) | > 100 µM (inactive) |
| CN(C)c1ccc(/N=N\c2cccc3ncccc23)cc1 | > 93.8 µM (inactive) | 11.7 µM (inactive) | 51.9 | 93.5 µM (inactive) | 41.1 µM (inactive) | 29.4 µM (inactive) | 42 µM (inactive) | > 72.3 µM (inactive) | > 100 µM (inactive) | 49 µM (inactive) | 22.9 µM (inactive) | 42.6 µM (inactive) | > 100 µM (inactive) | > 78 µM (inactive) | > 100 µM (inactive) | > 100 µM (inactive) | 99.8 µM (inactive) | 0.0425 µM (active) | > 100 µM (inactive) | 97.5 µM (inactive) |
| CC(=O)OCC1OC(NC(=S)CCSc2nc3ccccc3c(=O)n2-c2ccccc2)C(OC(C)=O)C(OC(C)=O)C1OC(C)=O (stereo unspecified) | > 100 µM (inactive) | 57.8 µM (inactive) | 53.7 | 28.3 µM (inactive) | > 100 µM (inactive) | 52 µM (inactive) | 44.4 µM (inactive) | 50.5 µM (inactive) | 68.1 µM (inactive) | > 100 µM (inactive) | 40.4 µM (inactive) | 40.9 µM (inactive) | 18 µM (inactive) | 32.5 µM (inactive) | 59.6 µM (inactive) | 46.9 µM (inactive) | 68.2 µM (inactive) | – | 30.4 µM (inactive) | 28.4 µM (inactive) |
| N#CCC(=O)N/N=C\C(O)C(O)C(O)C(O)CO (stereo unspecified) | > 100 µM (inactive) | – | > 100 | > 100 µM (inactive) | > 100 µM (inactive) | > 100 µM (inactive) | > 100 µM (inactive) | > 100 µM (inactive) | > 100 µM (inactive) | > 100 µM (inactive) | > 100 µM (inactive) | > 100 µM (inactive) | > 100 µM (inactive) | > 100 µM (inactive) | > 100 µM (inactive) | > 100 µM (inactive) | > 100 µM (inactive) | > 100 µM (inactive) | > 100 µM (inactive) | > 100 µM (inactive) |
| O=C(/C=C\Nc1ccccc1O)C(Cl)(Cl)Cl | 34.9 µM (inactive) | 45.7 µM (inactive) | 38.5 | 24.1 µM (inactive) | > 100 µM (inactive) | 20.6 µM (inactive) | 25.3 µM (inactive) | > 100 µM (inactive) | 35.7 µM (inactive) | 99.3 µM (inactive) | 17.8 µM (inactive) | 37.7 µM (inactive) | 33.5 µM (inactive) | 3.87 µM (inactive) | 43.1 µM (inactive) | 53.2 µM (inactive) | 72.8 µM (inactive) | 78.5 µM (inactive) | 33.5 µM (inactive) | < 0.01 µM (active) |
| O=C1OC(c2ccccc2)=N/C1=C\c1cccc(F)c1 | > 100 µM (inactive) | > 100 µM (inactive) | > 100 | 38.6 µM (inactive) | > 100 µM (inactive) | 75 µM (inactive) | 56.6 µM (inactive) | 25.9 µM (inactive) | > 100 µM (inactive) | 27.7 µM (inactive) | 37 µM (inactive) | > 100 µM (inactive) | > 100 µM (inactive) | 40.8 µM (inactive) | 96.6 µM (inactive) | > 100 µM (inactive) | > 100 µM (inactive) | > 100 µM (inactive) | 32.7 µM (inactive) | > 100 µM (inactive) |
| CC1(C)OC(=O)N(c2ccccc2)C12C=Cc1cccc([N+](=O)[O-])c1O2 (stereo unspecified) | > 100 µM (inactive) | 60.8 µM (inactive) | 90.2 | > 100 µM (inactive) | > 100 µM (inactive) | 33 µM (inactive) | 42.5 µM (inactive) | > 100 µM (inactive) | 55.3 µM (inactive) | 48.2 µM (inactive) | > 100 µM (inactive) | 31 µM (inactive) | > 100 µM (inactive) | 55.1 µM (inactive) | 90.8 µM (inactive) | 28.2 µM (inactive) | > 100 µM (inactive) | > 100 µM (inactive) | 47.6 µM (inactive) | 80 µM (inactive) |
| Cc1ccc(CNNC(=O)c2cc[n+]([BH2-]C#N)cc2)cc1 | > 100 µM (inactive) | 87.7 µM (inactive) | > 100 | > 100 µM (inactive) | 99.3 µM (inactive) | > 100 µM (inactive) | > 100 µM (inactive) | > 100 µM (inactive) | > 100 µM (inactive) | > 100 µM (inactive) | > 100 µM (inactive) | 84.9 µM (inactive) | > 100 µM (inactive) | > 100 µM (inactive) | > 100 µM (inactive) | > 100 µM (inactive) | > 100 µM (inactive) | > 100 µM (inactive) | > 100 µM (inactive) | 17.1 µM (inactive) |
| Oc1cccc2ccc(SSc3ccc4cccc(O)c4n3)nc12 | 18.5 µM (inactive) | 29.3 µM (inactive) | 22.3 | 17.7 µM (inactive) | 16.7 µM (inactive) | 19 µM (inactive) | 17.5 µM (inactive) | > 100 µM (inactive) | 16.9 µM (inactive) | 26.1 µM (inactive) | 16.1 µM (inactive) | 16.3 µM (inactive) | 16 µM (inactive) | 16.6 µM (inactive) | 20.7 µM (inactive) | 16.3 µM (inactive) | 17.9 µM (inactive) | 20.1 µM (inactive) | 20.2 µM (inactive) | 17.4 µM (inactive) |
| CC1(C)[C@@H](Cn2cnc3c(Cl)nc(N)nc32)CC[C@@]1(C)CO | 28.2 µM (inactive) | 58.9 µM (inactive) | 35.9 | > 100 µM (inactive) | 21.3 µM (inactive) | 26.4 µM (inactive) | 32.4 µM (inactive) | 12.7 µM (inactive) | – | 83.4 µM (inactive) | 33 µM (inactive) | 96.6 µM (inactive) | 65.8 µM (inactive) | > 100 µM (inactive) | 43.5 µM (inactive) | > 100 µM (inactive) | 57.3 µM (inactive) | > 100 µM (inactive) | 30.4 µM (inactive) | 20 µM (inactive) |
| c1csc(-c2nccc3c2[nH]c2ccccc23)c1 | 27.4 µM (inactive) | 46.6 µM (inactive) | 20.4 | 18.3 µM (inactive) | 20.6 µM (inactive) | 18.3 µM (inactive) | 17.5 µM (inactive) | 12 µM (inactive) | 18.7 µM (inactive) | 22.2 µM (inactive) | 20.5 µM (inactive) | 21.6 µM (inactive) | 16.3 µM (inactive) | 16.1 µM (inactive) | 25.6 µM (inactive) | 14.2 µM (inactive) | 16.8 µM (inactive) | 21.1 µM (inactive) | 21.2 µM (inactive) | 30.2 µM (inactive) |
